Laboratory results: the kinase profiling compilation of Christmann-Franck et al. (2016)

How the values were obtained:
Assay in all cases: radiometric filter-binding kinase assay
CDK2 CCNA2 (human) = CDK2 CCNA2 (human) (UniProt P20248+P24941)
INSRR (human) = INSRR (human) (UniProt P14616)
EPHB2 (human) = EPHB2 (human) (UniProt P29323)
MINK1 (human) = MINK1 (human) (UniProt Q8N4C8)
MARK2 (human) = MARK2 (human) (UniProt Q7KZI7)
DYRK2 (human) = DYRK2 (human) (UniProt Q92630)
RPS6KA5 KD1 KD2 (human) = RPS6KA5 KD1 KD2 (human) (UniProt O75582)
Chain of RPS6KA5 KD1 KD2 (human) (O75582 whole entry, looked up): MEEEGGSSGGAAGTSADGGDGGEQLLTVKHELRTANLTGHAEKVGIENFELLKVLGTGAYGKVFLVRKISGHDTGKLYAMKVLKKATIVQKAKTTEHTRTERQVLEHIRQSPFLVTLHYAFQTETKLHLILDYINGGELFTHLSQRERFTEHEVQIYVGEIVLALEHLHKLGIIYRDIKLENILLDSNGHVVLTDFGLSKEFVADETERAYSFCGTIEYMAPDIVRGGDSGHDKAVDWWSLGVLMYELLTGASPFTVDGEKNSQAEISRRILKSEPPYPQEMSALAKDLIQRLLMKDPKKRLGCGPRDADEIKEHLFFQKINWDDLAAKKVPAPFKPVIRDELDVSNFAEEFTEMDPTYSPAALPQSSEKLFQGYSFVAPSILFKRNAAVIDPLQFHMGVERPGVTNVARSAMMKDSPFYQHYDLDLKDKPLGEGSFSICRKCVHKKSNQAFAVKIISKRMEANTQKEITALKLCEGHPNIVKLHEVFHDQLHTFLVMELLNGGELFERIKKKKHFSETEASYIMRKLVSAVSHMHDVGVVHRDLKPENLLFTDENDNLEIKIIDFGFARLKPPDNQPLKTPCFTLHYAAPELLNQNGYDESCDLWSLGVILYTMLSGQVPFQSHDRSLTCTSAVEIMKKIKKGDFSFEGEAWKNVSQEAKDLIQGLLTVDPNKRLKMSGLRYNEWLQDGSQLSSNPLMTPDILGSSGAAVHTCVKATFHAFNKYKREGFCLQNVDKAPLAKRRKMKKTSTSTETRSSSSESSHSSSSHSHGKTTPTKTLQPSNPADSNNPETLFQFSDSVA

CAMKK2 (human) = CAMKK2 (human) (UniProt Q96RR4)
PRKAA1 or PRKAA2 (rat) = conditions: accession and sequence are those of the human protein
INSR (human) = INSR (human) (UniProt P06213)
MAPKAPK2 (human) = MAPKAPK2 (human) (UniProt P49137)
Chain of MAPKAPK2 (human) (P49137 whole entry, looked up): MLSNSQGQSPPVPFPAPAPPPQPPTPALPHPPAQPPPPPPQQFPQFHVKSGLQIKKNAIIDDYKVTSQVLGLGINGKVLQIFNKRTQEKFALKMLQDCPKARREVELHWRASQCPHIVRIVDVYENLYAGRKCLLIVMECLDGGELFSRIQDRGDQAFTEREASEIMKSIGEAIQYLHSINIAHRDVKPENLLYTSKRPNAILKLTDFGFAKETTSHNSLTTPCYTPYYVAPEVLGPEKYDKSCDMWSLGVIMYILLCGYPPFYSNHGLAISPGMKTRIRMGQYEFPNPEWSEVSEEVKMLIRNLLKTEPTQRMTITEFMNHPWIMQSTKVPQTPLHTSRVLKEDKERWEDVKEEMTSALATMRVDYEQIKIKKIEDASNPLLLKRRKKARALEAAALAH

BRSK1 (human) = BRSK1 (human) (UniProt Q8TDC3)
NUAK1 (human) = NUAK1 (human) (UniProt O60285)
NEK6 (human) = NEK6 (human) (UniProt Q9HC98)
NEK2 (human) = NEK2 (human) (UniProt P51955)
Chain of NEK2 (human) (P51955 whole entry, looked up): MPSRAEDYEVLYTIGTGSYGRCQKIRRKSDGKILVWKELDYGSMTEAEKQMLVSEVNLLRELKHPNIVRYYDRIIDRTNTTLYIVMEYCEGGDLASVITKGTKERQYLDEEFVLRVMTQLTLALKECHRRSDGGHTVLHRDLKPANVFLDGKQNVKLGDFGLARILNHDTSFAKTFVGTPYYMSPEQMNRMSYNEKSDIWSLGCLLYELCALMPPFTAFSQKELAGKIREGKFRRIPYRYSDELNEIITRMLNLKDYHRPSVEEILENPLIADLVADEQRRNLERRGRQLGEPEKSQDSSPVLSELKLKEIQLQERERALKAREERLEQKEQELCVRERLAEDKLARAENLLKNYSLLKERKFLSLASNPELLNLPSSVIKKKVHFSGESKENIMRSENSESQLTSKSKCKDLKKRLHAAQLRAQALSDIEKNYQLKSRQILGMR

CSK (human) = CSK (human) (UniProt P41240)
EPHA2 (human) = EPHA2 (human) (UniProt P29317)
PHKG1 (human) = PHKG1 (human) (UniProt Q16816)
Chain of PHKG1 (human) (Q16816 whole entry, looked up): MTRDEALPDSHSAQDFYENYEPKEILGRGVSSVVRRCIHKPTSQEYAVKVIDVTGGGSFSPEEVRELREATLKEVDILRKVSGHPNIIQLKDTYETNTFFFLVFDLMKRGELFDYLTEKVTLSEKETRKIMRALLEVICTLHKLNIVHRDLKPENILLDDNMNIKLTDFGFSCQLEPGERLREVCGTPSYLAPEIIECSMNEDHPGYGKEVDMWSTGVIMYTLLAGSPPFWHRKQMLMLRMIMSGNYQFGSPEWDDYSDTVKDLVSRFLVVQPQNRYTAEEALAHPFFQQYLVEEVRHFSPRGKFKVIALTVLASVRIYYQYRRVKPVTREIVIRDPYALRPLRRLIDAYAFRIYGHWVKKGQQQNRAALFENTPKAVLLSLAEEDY

CaMK1 (human) = CaMK1 (human) (UniProt Q14012)
RIPK2 (human) = RIPK2 (human) (UniProt O43353)
JAK2 JH1 JH2 (human) = JAK2 JH1 JH2 (human) (UniProt O60674)
PRKACA (human) = PRKACA (human) (UniProt P17612)
MAPK15 (human) = MAPK15 (human) (UniProt Q8TD08)
Chain of MAPK15 (human) (Q8TD08 whole entry, looked up): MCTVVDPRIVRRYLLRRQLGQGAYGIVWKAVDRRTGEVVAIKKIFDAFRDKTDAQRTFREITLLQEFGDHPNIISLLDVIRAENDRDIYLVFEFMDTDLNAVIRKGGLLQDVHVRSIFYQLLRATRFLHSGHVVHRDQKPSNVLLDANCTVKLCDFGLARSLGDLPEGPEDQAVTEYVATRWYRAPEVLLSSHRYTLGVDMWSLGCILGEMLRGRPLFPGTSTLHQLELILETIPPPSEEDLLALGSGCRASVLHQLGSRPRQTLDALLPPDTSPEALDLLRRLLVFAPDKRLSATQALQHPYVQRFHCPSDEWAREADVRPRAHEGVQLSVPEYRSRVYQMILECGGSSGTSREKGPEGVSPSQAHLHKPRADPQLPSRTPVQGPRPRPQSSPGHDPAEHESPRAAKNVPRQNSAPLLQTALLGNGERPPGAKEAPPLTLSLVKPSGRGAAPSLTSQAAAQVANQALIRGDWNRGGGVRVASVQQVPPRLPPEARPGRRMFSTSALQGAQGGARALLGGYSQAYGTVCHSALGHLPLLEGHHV

MST4 (human) = MST4 (human) (UniProt Q9P289)
Chain of MST4 (human) (Q9P289 whole entry, looked up): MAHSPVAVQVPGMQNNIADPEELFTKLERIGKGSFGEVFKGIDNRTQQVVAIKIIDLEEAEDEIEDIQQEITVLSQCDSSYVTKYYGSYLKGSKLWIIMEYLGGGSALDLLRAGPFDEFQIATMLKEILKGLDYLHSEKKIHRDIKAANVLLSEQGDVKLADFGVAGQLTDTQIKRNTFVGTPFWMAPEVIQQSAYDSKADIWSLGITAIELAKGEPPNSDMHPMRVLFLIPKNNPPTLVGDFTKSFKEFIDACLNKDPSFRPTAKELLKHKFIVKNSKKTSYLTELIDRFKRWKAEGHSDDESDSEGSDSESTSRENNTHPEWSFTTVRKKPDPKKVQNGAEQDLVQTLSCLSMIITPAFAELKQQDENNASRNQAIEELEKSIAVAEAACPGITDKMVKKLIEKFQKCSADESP

LCK (mouse) = conditions: accession and sequence are those of the human protein
MAP2K1 (human) = MAP2K1 (human) (UniProt Q02750)
MKNK1 (human) = MKNK1 (human) (UniProt Q9BUB5)
Chain of MKNK1 (human) (Q9BUB5 whole entry, looked up): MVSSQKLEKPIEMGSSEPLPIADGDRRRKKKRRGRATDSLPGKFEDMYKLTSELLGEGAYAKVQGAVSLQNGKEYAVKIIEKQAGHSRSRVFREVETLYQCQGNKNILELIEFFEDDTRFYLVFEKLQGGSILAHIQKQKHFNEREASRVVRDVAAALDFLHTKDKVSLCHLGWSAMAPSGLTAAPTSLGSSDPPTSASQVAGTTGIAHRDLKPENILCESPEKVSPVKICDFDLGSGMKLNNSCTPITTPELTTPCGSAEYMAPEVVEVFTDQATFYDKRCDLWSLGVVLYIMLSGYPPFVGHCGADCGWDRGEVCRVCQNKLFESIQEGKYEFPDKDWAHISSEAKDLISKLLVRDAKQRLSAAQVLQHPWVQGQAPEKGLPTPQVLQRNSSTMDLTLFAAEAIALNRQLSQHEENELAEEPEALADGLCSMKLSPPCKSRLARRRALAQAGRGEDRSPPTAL

MARK1 (human) = MARK1 (human) (UniProt Q9P0L2)
Chain of MARK1 (human) (Q9P0L2 whole entry, looked up): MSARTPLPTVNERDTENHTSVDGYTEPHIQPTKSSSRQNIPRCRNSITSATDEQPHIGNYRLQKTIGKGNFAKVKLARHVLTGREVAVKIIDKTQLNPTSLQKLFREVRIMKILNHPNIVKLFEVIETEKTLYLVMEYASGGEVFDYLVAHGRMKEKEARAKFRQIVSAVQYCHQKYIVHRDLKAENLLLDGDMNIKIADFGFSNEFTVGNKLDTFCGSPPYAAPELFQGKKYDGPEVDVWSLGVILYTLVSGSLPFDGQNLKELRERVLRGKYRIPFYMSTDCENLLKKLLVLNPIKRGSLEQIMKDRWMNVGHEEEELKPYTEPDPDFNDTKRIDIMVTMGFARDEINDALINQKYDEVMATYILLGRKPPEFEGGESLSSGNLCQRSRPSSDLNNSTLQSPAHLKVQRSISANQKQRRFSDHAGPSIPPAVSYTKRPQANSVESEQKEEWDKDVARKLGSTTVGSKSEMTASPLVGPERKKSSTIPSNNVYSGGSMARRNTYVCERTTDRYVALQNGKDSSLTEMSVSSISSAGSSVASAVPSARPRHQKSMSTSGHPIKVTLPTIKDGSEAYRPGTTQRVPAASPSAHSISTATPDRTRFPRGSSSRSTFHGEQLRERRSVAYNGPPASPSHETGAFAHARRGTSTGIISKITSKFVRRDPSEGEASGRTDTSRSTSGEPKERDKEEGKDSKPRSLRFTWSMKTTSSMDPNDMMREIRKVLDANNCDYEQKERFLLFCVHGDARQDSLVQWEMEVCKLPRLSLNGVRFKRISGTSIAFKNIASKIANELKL

HIPK3 (human) = HIPK3 (human) (UniProt Q9H422)
PRKCA (human) = PRKCA (human) (UniProt P17252)
SRPK1 (human) = SRPK1 (human) (UniProt Q96SB4)
ERBB4 (human) = ERBB4 (human) (UniProt Q15303)
BTK (human) = BTK (human) (UniProt Q06187)
EPHA4 (human) = EPHA4 (human) (UniProt P54764)
PAK7 (human) = PAK7 (human) (UniProt Q9P286)
Chain of PAK7 (human) (Q9P286 whole entry, looked up): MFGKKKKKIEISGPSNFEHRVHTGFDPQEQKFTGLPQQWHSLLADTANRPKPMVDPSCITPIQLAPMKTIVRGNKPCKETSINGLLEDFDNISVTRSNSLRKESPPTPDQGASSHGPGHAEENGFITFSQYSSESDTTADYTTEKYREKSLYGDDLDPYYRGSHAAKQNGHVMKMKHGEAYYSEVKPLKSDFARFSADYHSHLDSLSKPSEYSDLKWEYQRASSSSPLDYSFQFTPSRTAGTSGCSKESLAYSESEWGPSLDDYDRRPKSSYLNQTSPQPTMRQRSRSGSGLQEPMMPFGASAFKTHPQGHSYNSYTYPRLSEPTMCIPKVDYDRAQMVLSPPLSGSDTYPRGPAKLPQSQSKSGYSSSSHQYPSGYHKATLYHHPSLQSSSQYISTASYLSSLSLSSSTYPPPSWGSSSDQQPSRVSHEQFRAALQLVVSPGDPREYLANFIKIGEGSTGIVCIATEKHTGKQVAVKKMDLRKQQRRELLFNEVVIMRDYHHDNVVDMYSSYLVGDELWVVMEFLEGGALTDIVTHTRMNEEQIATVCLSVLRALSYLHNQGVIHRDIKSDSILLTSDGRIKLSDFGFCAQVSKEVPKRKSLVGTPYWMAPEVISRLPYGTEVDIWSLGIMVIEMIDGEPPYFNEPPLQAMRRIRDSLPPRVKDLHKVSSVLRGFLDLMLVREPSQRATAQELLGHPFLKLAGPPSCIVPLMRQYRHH

**Q.** What does the source list for `Cc1ccc(Sc2cnc(Nc3cccc(Br)n3)s2)cc1C(=O)N1CCN(C(=O)CN)CC1`?
**A.** residual activity (CDK2 CCNA2 (human); compound 0.1 µM): 35%; residual activity (CDK2 CCNA2 (human); compound 1.0 µM): 15%; residual activity (CDK2 CCNA2 (human); compound 10.0 µM): 3%; residual activity (INSRR (human); compound 0.1 µM): 69%; residual activity (INSRR (human); compound 1.0 µM): 80%; residual activity (INSRR (human); compound 10.0 µM): 52%; residual activity (EPHB2 (human); compound 0.1 µM): 11%; residual activity (EPHB2 (human); compound 1.0 µM): 4%; residual activity (EPHB2 (human); compound 10.0 µM): 4%; residual activity (MINK1 (human); compound 0.1 µM): 69%; residual activity (MINK1 (human); compound 1.0 µM): 64%; residual activity (MINK1 (human); compound 10.0 µM): 8%; residual activity (MARK2 (human); compound 0.1 µM): 81%; residual activity (MARK2 (human); compound 1.0 µM): 87%; residual activity (MARK2 (human); compound 10.0 µM): 44%; residual activity (DYRK2 (human); compound 0.1 µM): 101%; residual activity (DYRK2 (human); compound 1.0 µM): 87%; residual activity (DYRK2 (human); compound 10.0 µM): 80%; residual activity (RPS6KA5 KD1 KD2 (human); compound 0.1 µM): 59%; residual activity (RPS6KA5 KD1 KD2 (human); compound 1.0 µM): 51%; residual activity (RPS6KA5 KD1 KD2 (human); compound 10.0 µM): 22%; residual activity (CAMKK2 (human); compound 0.1 µM): 22%; residual activity (CAMKK2 (human); compound 1.0 µM): 19%; residual activity (CAMKK2 (human); compound 10.0 µM): 19%; residual activity (PRKAA1 or PRKAA2 (rat); compound 0.1 µM): 63%; residual activity (PRKAA1 or PRKAA2 (rat); compound 1.0 µM): 47%; residual activity (PRKAA1 or PRKAA2 (rat); compound 10.0 µM): 3%; residual activity (INSR (human); compound 0.1 µM): 19%; residual activity (INSR (human); compound 1.0 µM): 14%; residual activity (INSR (human); compound 10.0 µM): 1%; residual activity (MAPKAPK2 (human); compound 0.1 µM): 98%; residual activity (MAPKAPK2 (human); compound 1.0 µM): 86%; residual activity (MAPKAPK2 (human); compound 10.0 µM): 80%; residual activity (BRSK1 (human); compound 0.1 µM): 82%; residual activity (BRSK1 (human); compound 1.0 µM): 81%; residual activity (BRSK1 (human); compound 10.0 µM): 41%; residual activity (NUAK1 (human); compound 0.1 µM): 40%; residual activity (NUAK1 (human); compound 1.0 µM): 37%; residual activity (NUAK1 (human); compound 10.0 µM): 7%; residual activity (NEK6 (human); compound 0.1 µM): 103%; residual activity (NEK6 (human); compound 1.0 µM): 101%; residual activity (NEK6 (human); compound 10.0 µM): 85%; residual activity (NEK2 (human); compound 0.1 µM): 108%; residual activity (NEK2 (human); compound 1.0 µM): 87%; residual activity (NEK2 (human); compound 10.0 µM): 71%; residual activity (CSK (human); compound 0.1 µM): 103%; residual activity (CSK (human); compound 1.0 µM): 88%; residual activity (CSK (human); compound 10.0 µM): 9%; residual activity (EPHA2 (human); compound 0.1 µM): 46%; residual activity (EPHA2 (human); compound 1.0 µM): 36%; residual activity (EPHA2 (human); compound 10.0 µM): 13%; residual activity (PHKG1 (human); compound 0.1 µM): 43%; residual activity (PHKG1 (human); compound 1.0 µM): 15%; residual activity (PHKG1 (human); compound 10.0 µM): 2%; residual activity (CaMK1 (human); compound 0.1 µM): 62%; residual activity (CaMK1 (human); compound 1.0 µM): 59%; residual activity (CaMK1 (human); compound 10.0 µM): 11%; residual activity (RIPK2 (human); compound 0.1 µM): 20%; residual activity (RIPK2 (human); compound 1.0 µM): 17%; residual activity (RIPK2 (human); compound 10.0 µM): 8%; residual activity (JAK2 JH1 JH2 (human); compound 0.1 µM): 84%; residual activity (JAK2 JH1 JH2 (human); compound 1.0 µM): 80%; residual activity (JAK2 JH1 JH2 (human); compound 10.0 µM): 30%; residual activity (PRKACA (human); compound 0.1 µM): 98%; residual activity (PRKACA (human); compound 1.0 µM): 88%; residual activity (PRKACA (human); compound 10.0 µM): 54%; residual activity (MAPK15 (human); compound 0.1 µM): 1%; residual activity (MAPK15 (human); compound 1.0 µM): 1%; residual activity (MAPK15 (human); compound 10.0 µM): 1%; residual activity (MST4 (human); compound 0.1 µM): 50%; residual activity (MST4 (human); compound 1.0 µM): 50%; residual activity (MST4 (human); compound 10.0 µM): 17%; residual activity (LCK (mouse); compound 0.1 µM): 43%; residual activity (LCK (mouse); compound 1.0 µM): 13%; residual activity (LCK (mouse); compound 10.0 µM): 5%; residual activity (MAP2K1 (human); compound 0.1 µM): 96%; residual activity (MAP2K1 (human); compound 1.0 µM): 85%; residual activity (MAP2K1 (human); compound 10.0 µM): 40%; residual activity (MKNK1 (human); compound 0.1 µM): 97%; residual activity (MKNK1 (human); compound 1.0 µM): 103%; residual activity (MKNK1 (human); compound 10.0 µM): 77%; residual activity (MARK1 (human); compound 0.1 µM): 70%; residual activity (MARK1 (human); compound 1.0 µM): 78%; residual activity (MARK1 (human); compound 10.0 µM): 58%; residual activity (HIPK3 (human); compound 0.1 µM): 30%; residual activity (HIPK3 (human); compound 1.0 µM): 31%; residual activity (HIPK3 (human); compound 10.0 µM): 17%; residual activity (PRKCA (human); compound 0.1 µM): 41%; residual activity (PRKCA (human); compound 1.0 µM): 45%; residual activity (PRKCA (human); compound 10.0 µM): 11%; residual activity (SRPK1 (human); compound 0.1 µM): 71%; residual activity (SRPK1 (human); compound 1.0 µM): 59%; residual activity (SRPK1 (human); compound 10.0 µM): 11%; residual activity (ERBB4 (human); compound 0.1 µM): 69%; residual activity (ERBB4 (human); compound 1.0 µM): 64%; residual activity (ERBB4 (human); compound 10.0 µM): 51%; residual activity (BTK (human); compound 0.1 µM): 96%; residual activity (BTK (human); compound 1.0 µM): 53%; residual activity (BTK (human); compound 10.0 µM): 8%; residual activity (EPHA4 (human); compound 0.1 µM): 22%; residual activity (EPHA4 (human); compound 1.0 µM): 29%; residual activity (EPHA4 (human); compound 10.0 µM): 0%; residual activity (PAK7 (human); compound 0.1 µM): 62%; residual activity (PAK7 (human); compound 1.0 µM): 58%; residual activity (PAK7 (human); compound 10.0 µM): 22%
